According to PMC12682947, “Identification of New KCNT1‐Epilepsy Drugs by In Silico, Cell, and Drosophila Modeling” (Annals of Neurology, 2025):
Several values for one entry are separate records, joined by “and”; a condition that tells them apart may be missing. Equal entries are not always repeated. Entries after “also recorded” stand apart in the source; their conditions may differ. Where two headings read alike, the source gives them in different places.

Experiment: Plasma pharmacokinetics and brain uptake of antrafenine in mice (LC-MS)
Type: in vivo, male C57BL/6 mice
Experimental: Plasma pharmacokinetics and brain uptake of antrafenine was analyzed in male C57BL/6 mice. Antrafenine was administered intravenously at 1 mg/kg and 3 mg/kg into the tail vein and plasma was collected over a 24‐hour sampling period (n = 3 mice/time point). Following administration, the brain was harvested at 4 times over 24 hours and snap frozen in dry ice and subsequently stored frozen (−80°C) until analysis. The concentration of antrafenine was determined using liquid chromatography–mass spectrometry. The in vivo study was conducted using established procedures in accordance with the Australian Code of Practice for the Care and Use of Animals for Scientific Purposes, and the study protocols were reviewed and approved by the Monash Institute of Pharmaceutical Sciences Animal Ethics Committee. See Supporting Information for detailed methods and results. […]
Plasma pharmacokinetics and brain uptake of antrafenine was analyzed in male C57BL/6 mice by the Monash University Centre for Drug Candidate Optimisation. Antrafenine was administered intravenously at 1 mg/kg and 3 mg/kg into the tail vein and plasma was collected over a 24 h sampling period (n=3 mice/time point). Following administration, brain was harvested at four times over 24 hours and snap frozen in dry ice and subsequently stored frozen (-80°C) until analysis. The concentration of antrafenine was determined using liquid chromatography–mass spectrometry (LC-MS).
4 hrs post IV administration of 3 mg/kg Antrafenine was taken as a representative time to compare plasma and brain concentrations. At 4 hrs we determined a mean plasma concentration of 47.5 nM (+5.9 nM SD) and a mean brain concentration of 13.9 nM (+3 nM SD). […]
Plasma pharmacokinetics and brain uptake of antrafenine
The systemic exposure of antrafenine was studied in non-fasted male C57BL/6 mice weighing 19.8 – 24.6 g. Mice had access to food and water ad libitum throughout the pre- and post-dose period. Antrafenine hydrochloride Mw 588.554 (Lot#10-KSS-51-2) was obtained from Toronto Research Chemicals/LGC Standards, Canada, and was dissolved in vehicle; 5% (v/v) DMSO, 25% (v/v) 40% (w/v) Trappsol in 0.9% (w/v) saline, 70% (v/v) 40 mM citrate buffered saline at pH 3.5 at concentrations of 0.5 mg/mL and 1.5 mg/mL.
On the day of dosing, each formulation was prepared by dissolving solid antrafenine in DMSO using vortexing and sonication prior to addition of 40% (w/v) Trappsol in 0.9% (w/v) saline followed by 40 mM citrate-buffered saline at pH 3.5. Each sample was vortexed to create a colorless / light yellow solution and was filtered through a 0.22 µm syringe filter prior to dosing.
Administration of antrafenine was performed by a single bolus IV injection into the tail vein of C57BL/6 male mice using a 1ml syringe with a 25G x 1” needle at a volume of 2 mL/kg. Each […]
formulation was dosed to mice by bolus injection into the lateral tail vein (2 mL/kg) and blood samples were collected at 1, 2, 5, 15 and 30 min; 1, 2, 4, 7.5 and 24 h post-dose (n=3 mice per time point for each formulation). A maximum of three blood samples were obtained from each mouse, with plasma samples being taken via submandibular bleed (approximately 120 μL).
Blood was collected into polypropylene Eppendorf tubes containing heparin as anticoagulant and stabilization cocktail (Complete® (containing a protease inhibitor cocktail and EDTA) and potassium fluoride) to minimize the potential for ex vivo compound degradation in blood/plasma samples. Once collected, blood samples were centrifuged immediately, supernatant plasma was removed, snap frozen in dry ice and stored at -80°C until analysis by LC-MS. In addition, at the 15 min, 1, 4 and 24 h post-dose time points, the whole brain was rapidly removed from the carcass soon after the blood collection. The whole brains were blotted to remove excess blood, placed into pre-weighed polypropylene vials and weighed. The brains were snap frozen in dry […]

[1] = IV 1 mg/kg, 0.25 h, individual mice, 1 mg/kg
[2] = IV 1 mg/kg, 1 h, individual mice, 1 mg/kg
[3] = IV 1 mg/kg, 4 h, individual mice, 1 mg/kg
[4] = IV 3 mg/kg, 0.25 h, individual mice, 3 mg/kg
[5] = IV 3 mg/kg, 1 h, individual mice, 3 mg/kg
[6] = IV 3 mg/kg, 4 h, individual mice, 3 mg/kg

In the case of O=C(OCCN1CCN(c2cccc(C(F)(F)F)c2)CC1)c1ccccc1Nc1ccnc2cc(C(F)(F)F)ccc12 [antrafenine], the “detection in brain at 24 h” value (24 h post-dose, either dose level (1 and 3 mg/kg IV)) is reported as “not detected”, the “B:P ratio Individual” value [1] is reported as 0.027 and 0.094 and 0.028 and the “Plasma Concentration Individual” value [1] is reported as 0.233 µM and 0.344 µM. For the same compound, the concentration at 4 h (IV 1 mg/kg, 0.25 h, individual mice, 1 mg/kg, read-out: Brain Parenchyma Concentration Individual) was 0.0085 µM and 0.0220 µM and 0.0095 µM, the “B:P ratio Individual” value [2] was 0.087 and 0.046 and 0.096 and the “Plasma Concentration Individual” value [2] was 0.112 µM and 0.104 µM. For the same compound, the concentration at 4 h (IV 1 mg/kg, 1 h, individual mice, 1 mg/kg, read-out: Brain Parenchyma Concentration Individual) was 0.0105 µM and 0.0052 µM and 0.0099 µM, the “B:P ratio Individual” value [3] was 0.46 and 0.26 and 0.17 and the “Plasma Concentration Individual” value [3] was 0.014 µM and 0.0129 µM. For the same compound, the concentration at 4 h (IV 1 mg/kg, 4 h, individual mice, 1 mg/kg, read-out: Brain Parenchyma Concentration Individual) was 0.0057 µM and 0.0037 µM and 0.0022 µM, the “Plasma Concentration Individual” value (IV 1 mg/kg, 24 h, individual mice, 1 mg/kg) was 0.0016 µM and 0.0018 µM and the “B:P ratio Individual” value [4] was 0.038 and 0.048. The “Plasma Concentration Individual” value [4] was 0.705 µM and 0.648 µM, the concentration at 4 h (IV 3 mg/kg, 0.25 h, individual mice, 3 mg/kg, read-out: Brain Parenchyma Concentration Individual) was 0.0266 µM and 0.0309 µM and the “B:P ratio Individual” value [5] was 0.087 and 0.10. The “Plasma Concentration Individual” value [5] was 0.208 µM and 0.349 µM, the concentration at 4 h (IV 3 mg/kg, 1 h, individual mice, 3 mg/kg, read-out: Brain Parenchyma Concentration Individual) was 0.0402 µM and 0.0182 µM and 0.0358 µM and the “B:P ratio Individual” value [6] was 0.30 and 0.25. The “Plasma Concentration Individual” value [6] was 0.0419 µM and 0.0471 µM, the concentration at 4 h (IV 3 mg/kg, 4 h, individual mice, 3 mg/kg, read-out: Brain Parenchyma Concentration Individual) was 0.0127 µM and 0.0117 µM and the “Plasma Concentration Individual” value (IV 3 mg/kg, 24 h, individual mice, 3 mg/kg) was 0.0088 µM and 0.0051 µM. The “adverse reactions / toxic effects in mice” value (IV at 1 and 3 mg/kg) was “No adverse reactions or compound-related side effects were observed; also recorded: No toxic effects”, the “apparent plasma clearance (in words)” value (IV at 1 and 3 mg/kg) was “low” and the “volume of distribution (in words)” value (IV at 1 and 3 mg/kg) was “high”. The concentration at 4 h (male, C57BL/6, mouse, brain parenchyma, iv, 3 mg/kg, IV 3 mg/kg, 4 h, individual mice, read-out: Brain Parenchyma Concentration Individual) was 0.0173 µM, the concentration at 4 h (male, C57BL/6, mouse, brain parenchyma, iv, 3 mg/kg, IV 3 mg/kg, 4 h, n = 3, read-out: Brain Parenchyma Concentration Mean ± SD) was 0.0139 µM and the Kp at 0.25 h (male, C57BL/6, mouse, brain, iv, 1 mg/kg, IV 1 mg/kg, 0.25 h, n = 3, read-out: B:P ratio Mean ± SD) was 0.05. The concentration at 0.25 h (male, C57BL/6, mouse, brain, iv, 1 mg/kg, IV 1 mg/kg, 0.25 h, n = 3, read-out: Brain Parenchyma Concentration Mean ± SD) was 13.3 nM, the Kp at 1 h (male, C57BL/6, mouse, brain, iv, 1 mg/kg, IV 1 mg/kg, 1 h, n = 3, read-out: B:P ratio Mean ± SD) was 0.076 and the concentration at 1 h (male, C57BL/6, mouse, brain, iv, 1 mg/kg, IV 1 mg/kg, 1 h, n = 3, read-out: Brain Parenchyma Concentration Mean ± SD) was 8.5 nM. For the same compound, the Kp at 4 h (male, C57BL/6, mouse, brain, iv, 1 mg/kg, IV 1 mg/kg, 4 h, n = 3, read-out: B:P ratio Mean ± SD) was 0.3 ± 0.15, the concentration at 4 h (male, C57BL/6, mouse, brain, iv, 1 mg/kg, IV 1 mg/kg, 4 h, n = 3, read-out: Brain Parenchyma Concentration Mean ± SD) was 0.0039 µM and the Kp at 0.25 h (male, C57BL/6, mouse, brain, iv, 3 mg/kg, IV 3 mg/kg, 0.25 h, individual mice, read-out: B:P ratio Individual) was 0.042. It also gave a concentration at 0.25 h (male, C57BL/6, mouse, brain, iv, 3 mg/kg, IV 3 mg/kg, 0.25 h, individual mice, read-out: Brain Parenchyma Concentration Individual) of 31.1 nM.
